Measurements as given in EP1508334B1, “Water soluble extract from plant of solanum genus and the preparation process thereof, and pharmaceutical composition containing the water soluble extract” (G & E Herbal Biotechnology Co., Ltd., priority 2003, dated 2005).

Experiments:
[1] = Dissolution in water (applicant's observations); format: physicochemical; conditions: for direct dissolution in water: compounds purified by HPLC from the water-soluble extract; for concentration at which precipitated: in water after being first dissolved in DMSO; for dissolution in water: without DMSO pre-treatment
[2] = system: Lymnaea cubensis; conditions: cited from earlier work
[3] = system: Rhizoctomia solani; conditions: cited from earlier work
[4] = system: TNF receptor I; conditions: cited from earlier work
[5] = system: human PLC/PRF/5 hepatoma cells; conditions: cited from earlier work
[6] = system: Trypanosoma cruzi; conditions: cited from earlier work
[7] = system: Phoma medicaginis; conditions: cited from earlier work
[8] = system: Manduca sexta; conditions: cited from earlier work
[9] = system: H441; assay: MTS tetrazolium salt cytotoxicity assay; format: cell-based, human; conditions: different test concentrations / various dosages, 12 hrs, Fig. 8 and Fig. 12
Source text: In order to determine whether the water-soluble extract obtained from the plant of Solanum genus according to this invention has anti-cancer activity, the principal cancer cells of Hep3B, H441, and MCF-7 were used as analytic targets, in which Hep3B and H441 were purchased from American Type Culture Collection (ATCC, P.O. Box 1549, Manassas, VA 20108 USA), and MCF-7 was purchased from Food Industry Research and Development Institute (331 Shih-Pin Road, Hsinchu, 300 Taiwan R.O.C.).
Hep3B was incubated in Dulbecco's Modified Eagle's medium (DMEM), while H441 and MCF-7 were incubated in RPMI-1640, both of the media containing 10% fetal bovine serum and 40 mg/L gentamycin.
The cytotoxicity of cancer cells was determined using tetrazolium salt assay (MTS, Mosmann. T., 1983, Immmunol. Meth., 65, 55-63), which was conducted for the colorimetric determination of cell viability according to the manufacturer's procedures (CellTiter 96™ AQ, Promega, Madison, USA).
Cells were seeded at 1x10^4 cells/well in a 96-well plate and incubated in 5% CO2 incubator at 37°C for at least 16 hrs. […] Upon completion of the reaction, absorbency in each well was determined at 490 nm by using ELISA reader 312e, Bio-TEK. Each value was expressed as means ± SD from three experiments.
Cytotoxicity was determined by MTS tetrazolium salt assay disclosed in Pharmacological assay 1. […]

[10] = system: Hep3B; conditions: cited from earlier work
[11] = system: Tribolium castaneum; conditions: cited from earlier work
[12] = system: Biomphalaria glabrata; conditions: cited from earlier work
[13] = system: JTC-26; conditions: cited from earlier work
[14] = system: normal skin fibroblast cells; conditions: cited from earlier work

Compound	direct dissolution in water [1]	concentration at which precipitated [1]	dissolution in water [1]	inhibiting growth of Lymnaea cubensis [2]	inhibiting growth of Rhizoctomia solani [3]	gene expression of TNF receptor I [4]	growth of human PLC/PRF/5 hepatoma cells [5]	inhibiting growth of Trypanosoma cruzi [6]	inhibiting growth of Phoma medicaginis [7]	inhibiting growth of Manduca sexta [8]	inhibiting the growth of H441 [9]	death of cells by apoptosis pathway [10]	inhibiting growth of Tribolium castaneum [11]	inhibiting growth of Biomphalaria glabrata [12]	growth of JTC-26 [13]	death of cells by apoptosis pathway [14]
C[C@@H]1CC[C@@]2(NC1)O[C@H]1C[C@H]3[C@@H]4CC=C5C[C@@H](O[C@@H]6O[C@H](CO)[C@@H](O[C@@H]7O[C@@H](C)[C@H](O)[C@@H](O)[C@H]7O)[C@H](O)[C@H]6O[C@@H]6O[C@@H](C)[C@H](O)[C@@H](O)[C@H]6O)CC[C@]5(C)[C@H]4CC[C@]3(C)[C@H]1[C@@H]2C [solamargine]	directly dissolved in water	more than 5 mg/ml	could not dissolve in water	capable of inhibiting growth	capable of inhibiting growth	up-regulated	inhibits the growth	capable of inhibiting growth	capable of inhibiting growth	capable of inhibiting growth	effectively inhibited	increases death of cells	capable of inhibiting growth	capable of inhibiting growth	inhibits the growth	increases death of cells
C[C@@H]1CC[C@@]2(NC1)O[C@H]1C[C@H]3[C@@H]4CC=C5C[C@@H](O[C@@H]6O[C@H](CO)[C@H](O)[C@H](O[C@@H]7O[C@H](CO)[C@@H](O)[C@H](O)[C@H]7O)[C@H]6O[C@@H]6O[C@@H](C)[C@H](O)[C@@H](O)[C@H]6O)CC[C@]5(C)[C@H]4CC[C@]3(C)[C@H]1[C@@H]2C [solasonine]	directly dissolved in water	more than 5 mg/ml	could not dissolve in water	–	–	–	–	–	–	–	effectively inhibited	–	–	–	–	–
